The values that follow come from US8202885B2, “Bridged six-membered ring compounds” (Actelion Pharmaceuticals Ltd., priority 2007, dated 2012).

Each structure is given as a SMILES string. Where “and” joins values, the source holds several entries; their conditions need not be identical. Equal values may be shown once. Bounds are passed on as bounds.

In this assay the test system is human Cav3.1 Cav3.2 or Cav3.3 channel. Description: In vitro assay T channel (FLIPR calcium fluorescence). It counts as cell-based. Conditions: HEK293 cells expressing human Cav3.1, Cav3.2 or Cav3.3; 10 mM Ca2+-induced fluo-4 fluorescence; determined up to 10 μM; read-out: T channel antagonistic activity IC50. The method, boiled down:
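HEK293 cells stably expressing human Cav3.1, Cav3.2 or Cav3.3 loaded with fluo-4 AM (3 μM), preincubated 3 min with antagonist, then stimulated with 10 mM Ca2+ in TEA-chloride/HEPES buffer pH 7.2. FLIPR fluorescence read every 2 s for 8 min; IC50 from peak area versus vehicle, tested up to 10 μM.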
With `CO[C@]1(c2ccccc2)C[C@H]2CC[C@@H]1C[C@@]2(O)CCN(C)CCCc1nc2ccccc2[nH]1` (relative stereo) [Example 76, rac-(1R*,2R*,4R*,5R*)-2-(2-{[3-(1H-Benzoimidazol-2-yl)-propyl]-methyl-amino}-ethyl)-5-methoxy-5-phenyl-bicyclo[2.2.2]octan-2-ol], the IC50 is above 10000 nM.

On to `COc1cccc2[nH]c(CCCN(C)CC[C@]3(OC(=O)OC(C)C)C[C@H]4CC[C@@H]3C=C4c3ccccc3)nc12` (relative stereo) [Example 26G, rac-Carbonic acid isopropyl ester (1R*,2R*,4R*)-2-(2-{[3-(4-methoxy-1H-benzoimidazol-2-yl)-propyl]-methyl-amino}-ethyl)-5-phenyl-bicyclo[2.2.2]oct-5-en-2-yl ester], for which the IC50 came out at 935 nM.

`COc1cc(C)c2[nH]c(CCCN(C)CC[C@]3(OC(=O)C(C)C)C[C@H]4CC[C@@H]3C=C4c3ccccc3)nc2c1OC` (relative stereo) [Example 64A, rac-Isobutyric acid (1R*,2R*,4R*)-2-(2-{[3-(4,5-dimethoxy-7-methyl-1H-benzoimidazol-2-yl)-propyl]-methyl-amino}-ethyl)-5-phenyl-bicyclo[2.2.2]oct-5-en-2-yl ester]: the IC50 amounted to 914 nM.

In the case of `CC(C)C(=O)O[C@@]1(CCN(C)CCCc2nc3cccc(O)c3[nH]2)C[C@H]2CC[C@@H]1C=C2c1ccccc1` (relative stereo) [Example 35A, rac-Isobutyric acid (1R*,2R*,4R*)-2-(2-{[3-(7-hydroxy-1H-benzoimidazol-2-yl)-propyl]-methyl-amino}-ethyl)-5-phenyl-bicyclo[2.2.2]oct-5-en-2-yl ester], the IC50 amounted to 1340 nM.

Consider `CC(C)C(=O)OC1(CCN(C)CCCc2nc3ccccc3[nH]2)CC2CCC1CC2c1ccccc1` (racemic) [Example 73A, rac-Isobutyric acid (1R*,2R*,4R*,5S*)-2-(2-{[3-(1H-benzoimidazol-2-yl)-propyl]-methyl-amino}-ethyl)-5-phenyl-bicyclo[2.2.2]oct-2-yl ester and rac-isobutyric acid (1R*,2R*,4R*,5R*)-2-(2-{[3-(1H-benzoimidazol-2-yl)-propyl]-methyl-amino}-ethyl)-5-phenyl-bicyclo[2.2.2]oct-2-yl ester], for which the IC50 is 1750 nM and 2000 nM.

`CCCC1=C(C)[C@H]2CC[C@@H]1C[C@]2(CCN(C)CCCN(C)C(=O)C(C)(COC)COC)OC(=O)C(C)C` (relative stereo) [Example 52A, rac-Isobutyric acid (1R*,2R*,4R*)-2-[2-({3-[(3-methoxy-2-methoxymethyl-2-methyl-propionyl)-methyl-amino]-propyl}-methyl-amino)-ethyl]-6-methyl-5-propyl-bicyclo[2.2.2]oct-5-en-2-yl ester]: the IC50 came out at 4210 nM.

For `CC(C)C(=O)OC1(CCN(C)CCCc2nc3ccccc3[nH]2)CC2CCC1C=C2c1ccccc1` [Example 12A, Isobutyric acid (1R,2R,4R)-2-(2-{[3-(1H-benzoimidazol-2-yl)-propyl]-methyl-amino}-ethyl)-5-phenyl-bicyclo[2.2.2]oct-5-en-2-yl ester or isobutyric acid (1S,2S,4S)-2-(2-{[3-(1H-benzoimidazol-2-yl)-propyl]-methyl-amino}-ethyl)-5-phenyl-bicyclo[2.2.2]oct-5-en-2-yl ester], the IC50 is 4230 nM.

For `CO[C@@]1(c2ccccc2)C[C@H]2CC[C@@H]1C[C@]2(O)CCN(C)CCCc1nc2ccccc2[nH]1` (relative stereo) [Example 77, rac-(1R*,2S*,4R*,5S*)-2-(2-{[3-(1H-Benzoimidazol-2-yl)-propyl]-methyl-amino}-ethyl)-5-methoxy-5-phenyl-bicyclo[2.2.2]octan-2-ol], the IC50 turned out to be 9100 nM.

With `Cc1nc(CCCN(C)CC[C@]2(OC(=O)C(C)C)C[C@H]3CC[C@@H]2C=C3c2ccccc2)[nH]c1-c1ccccc1` (relative stereo) [Example 71A, rac-Isobutyric acid (1R*,2R*,4R*)-2-(2-{methyl-[3-(4-methyl-5-phenyl-1H-imidazol-2-yl)-propyl]-amino}-ethyl)-5-phenyl-bicyclo[2.2.2]oct-5-en-2-yl ester], the IC50 stood at 1450 nM.

Usually IC50 stands for the concentration that gives 50% inhibition.
